In ChEMBL document CHEMBL1141542, “Synthesis and evaluation of 3- and 7-substituted geranylgeranyl pyrophosphate analogs” (Bioorg Med Chem Lett, 2008):

Experiments:
[1] = Inhibition of GGTase 1
[2] = Inhibition of FTase
[3] = Activity of FTase
[4] = Activity of GGTase 1

Compound: C=CC/C(=C\COP(=O)(O)OP(=O)(O)O)CC/C=C(\C)CC/C=C(\C)CCC=C(C)C
- IC50 [1]: 0.846 µM
- IC50 [2]: 0.453 µM

Compound: C=C/C(=C\COP(=O)(O)OP(=O)(O)O)CC/C=C(\C)CCC=C(C)C
- Km [3]: 0.156 µM

Compound: C=CC/C(=C\COP(=O)(O)OP(=O)(O)O)CC/C=C(\C)CCC=C(C)C
- IC50 [2]: 0.189 µM

Compound: C=C/C(=C\CC/C(C)=C/COP(=O)(O)OP(=O)(O)O)CC/C=C(\C)CCC=C(C)C
- IC50 [1]: 1 µM
- IC50 [2]: > 5 µM

Compound: C=CC/C(=C\CC/C(C)=C/COP(=O)(O)OP(=O)(O)O)CC/C=C(\C)CCC=C(C)C
- IC50 [2]: > 5 µM
- Km [4]: 0.027 µM

Compound: C=C/C(=C\COP(=O)(O)OP(=O)(O)O)CC/C=C(\C)CC/C=C(\C)CCC=C(C)C
- IC50 [2]: 0.715 µM
- Km [4]: 1.75 µM
